The results in this text go back to PubChem BioAssay (NCI).

Common to all, as to test: NCI-60 cell line screen, 48 h
The subject of experiment [1] is ACHN renal.
In experiment [2] the test system is BT-549 breast.
The subject of experiment [3] is HCT-116 colon.
Experiment [4] concerns M14 melanoma.
Experiment [5] deals with OVCAR-5 ovarian.
Experiment [6] deals with RPMI-8226 leukemia.
Experiment [7] concerns SF-539 CNS.
The subject of experiment [8] is SK-MEL-28 melanoma.
The test system of experiment [9] is SW-620 colon.
In experiment [10] the test system is TK-10 renal.

Molecules are shown by their SMILES. Values joined by “and” are separate entries in the source; they are usually repeats but may differ in a detail not shown here. Identical values can stand only once.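 In this assay, cells in 96-well plates receive the compound at five concentrations for 48 hours. Endpoints are linearly interpolated between the surrounding concentrations. GI50: concentration for 50% inhibition of growth. At the TGI there is no net growth.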

For the compound `COc1ccc(C(=O)/C=C/c2cc(-c3ccc4c(c3)OCO4)n[nH]2)cc1OC`, the GI50 in [1] is 3.49 µM; in experiment [2], 1.97 µM; in experiment [3] it was 2.43 µM; in experiment [4], 6.36 µM; in [5], 3.36 µM; in [6], 1.03 µM. Further, the GI50 in experiment [7] was 1.91 µM; in experiment [8], 5.76 µM; in experiment [9], 2.05 µM; in experiment [10], 2.88 µM. Besides, the TGI was found to be 56.5 µM in experiment [1]; 4.21 µM in [2]; 7.99 µM in experiment [3]; 21.4 µM in experiment [4]; 23.2 µM in experiment [5]; 5.24 µM in experiment [6]. For the same compound, the TGI turned out to be 4.47 µM in experiment [7], 19.3 µM in experiment [8], 4.81 µM in experiment [9] and 8.97 µM in experiment [10].

With `CC[C@H]1CN(C)[C@H]2Cc3c([nH]c4ccccc34)C(=O)C[C@H]1C2C(=O)OC` (some centres not stated), the TGI in experiment [1], in experiment [2], in experiment [3], in [4], in experiment [5] and in experiment [6] was greater than 100 µM throughout. Further, the TGI in experiment [7], in experiment [8], in experiment [9] and in experiment [10] was greater than 100 µM each time.

`CCOC(=O)c1ccccc1SC(C[N+](=O)[O-])c1ccccc1` (configuration not stated): the GI50 was 2.02 µM in experiment [1]; 2.31 µM in [2]; 1.46 µM in experiment [3]; 2.01 µM in experiment [4]; 12.3 µM in experiment [5]; 2.44 µM in [6]. The GI50 in experiment [7] was 3.23 µM; in [8] it was 1.91 µM; in experiment [9], 2.04 µM; in [10], 5.91 µM. Further, the TGI in experiment [1] was found to be 4.51 µM; in [2], 5.53 µM; in [3] it was 2.98 µM; in [4] it was 4.43 µM; in [5] it was 25.3 µM; in experiment [6] it was 5.53 µM. In addition, the TGI in [7] was 12 µM; in [8], 3.74 µM; in experiment [9] it was 4.7 µM; in experiment [10], 18.8 µM.

Turning to `c1ccc2cc(C[n+]3ccn(Cc4ccc5ccccc5n4)c3)ccc2c1`, the GI50 in experiment [1] was 5.54 µM; in [2] it was 0.347 µM and 2.54 µM; in experiment [3], 0.413 µM and 3.29 µM; in experiment [4], 0.727 µM and 3.26 µM; in experiment [5], 0.588 µM and 3.58 µM; in experiment [6] it was 0.196 µM and 0.876 µM. The GI50 in experiment [7] is 0.421 µM and 2.72 µM; in experiment [8], 0.325 µM and 2.78 µM; in experiment [9], 0.734 µM and 6.27 µM; in [10], 1.71 µM and 10.4 µM. Further, the TGI in experiment [1] was 18.5 µM; in experiment [2], 1.51 µM and 8.46 µM; in experiment [3] it was 6.86 µM and 15.8 µM; in experiment [4], 4.55 µM and 17.1 µM; in [5], 9.52 µM and 16.7 µM; in experiment [7], 11.4 µM and 13.8 µM. For the same compound, the TGI in [8] was 1.35 µM and 13 µM; in experiment [9], 11.8 µM and 22.1 µM; in experiment [10], 6.47 µM and 23.8 µM.

As for `CC(C)C[CH2][Ge]([CH2]CC(C)C)([CH2]CC(C)C)[CH2]CC(C)C`, the GI50 in experiment [1], in [2], in experiment [3], in experiment [4], in experiment [5] and in [6] was greater than 100 µM each time. Moreover, the GI50 in [7], in experiment [8], in experiment [9] and in experiment [10] was greater than 100 µM each time. Also, the TGI in experiment [1], in [2], in experiment [3], in experiment [4], in experiment [5] and in [6] was greater than 100 µM throughout. The TGI in experiment [7], in experiment [8], in [9] and in experiment [10] was greater than 100 µM throughout.

For the compound `C=C(C)[C@@H]1CC[C@]2(C(=O)O)CC[C@]3(C)[C@H](CC[C@@H]4[C@@]5(C)C/C(=C/c6cccc(I)c6)C(=O)C(C)(C)[C@@H]5CC[C@]43C)[C@@H]12`, the GI50 was 2.62 µM in experiment [1]; 2.2 µM in experiment [2]; 1.78 µM in experiment [3]; 2.14 µM in experiment [4]; 3.19 µM in experiment [5]; 2.07 µM in experiment [6]. Also, the GI50 in experiment [7] was 2.17 µM; in experiment [8], 3.09 µM; in experiment [9], 1.95 µM; in experiment [10], 3.25 µM. Besides, the TGI was 11 µM in experiment [1]; 6.75 µM in experiment [2]; 3.53 µM in experiment [3]; 5.21 µM in experiment [4]; 14.7 µM in [5]; 7.06 µM in experiment [6]. For the same compound, the TGI in experiment [7] stood at 5.52 µM; in experiment [8], 10.1 µM; in [9], 4.58 µM; in [10], 20.6 µM.

On to `CCCCCCCCCCC[C@@H](C[C@H]1OC(=O)[C@H]1CCCCCC)OC(=O)[C@@H](CC(C)C)NC=O`, for which the GI50 in [1] was 8.63 µM; in experiment [2], 1.9 µM; in experiment [3], 3.14 µM; in [4] it was 6.1 µM; in [5], 21.7 µM; in experiment [6], 0.855 µM. Moreover, the GI50 in experiment [7] is 5.48 µM; in [8], 19.8 µM; in experiment [9], 4.92 µM; in [10], 32.8 µM. Moreover, the TGI in experiment [1] was greater than 100 µM; in experiment [2], 15.9 µM; in experiment [3], 19.3 µM; in experiment [4], 87 µM; in experiment [5], greater than 100 µM; in [6], 8.81 µM. Besides, the TGI in experiment [7] was 31 µM; in experiment [8], greater than 100 µM; in [9], 94.1 µM; in experiment [10], greater than 100 µM.

In the case of `O=C(c1ccco1)c1nc2cc(C(F)(F)F)ccc2[n+]([O-])c1C(F)(F)F`, the GI50 in experiment [1] was 47.1 µM; in [2] it was 63 µM; in experiment [3], 38.5 µM; in experiment [4] it was 43.8 µM; in [5], 31.5 µM; in [6], 20.3 µM. Besides, the GI50 in experiment [7] was 81.8 µM; in experiment [8], 41.4 µM; in experiment [9], 37.5 µM; in experiment [10], 50.8 µM. Also, the TGI in experiment [1], in experiment [2], in [3], in [4], in experiment [5] and in experiment [6] was greater than 100 µM each time. Also, the TGI in experiment [7], in experiment [8], in experiment [9] and in experiment [10] was greater than 100 µM throughout.

Consider `CC#CC#C/C=C1\C=CC2(OC=CC2OC(C)=O)O1` (configuration not stated), for which the TGI in experiment [1] is 33.9 µM; in experiment [2], greater than 100 µM; in experiment [3] it was > 100 µM and 33.1 µM; in experiment [4], > 100 µM and 37.9 µM; in experiment [5], greater than 100 µM; in [6], greater than 100 µM. In addition, the TGI in experiment [7] is 76.9 µM and 48.8 µM; in experiment [8] it was greater than 100 µM; in experiment [9], 65.9 µM and 39.7 µM; in experiment [10], > 100 µM and 59.7 µM. Moreover, the GI50 in experiment [3] was 39.8 µM and 17.3 µM; in [5] it was 30.6 µM and 9.87 µM; in experiment [8], 43.5 µM.

In the case of `C[C@@H](Oc1cc(-n2cnc3ccc(OCC4CCN(C)CC4)cc32)sc1C(N)=O)c1ccccc1Cl`, the GI50 in [1] was 0.368 µM; in [2] it was 0.397 µM; in experiment [3], 0.0617 µM; in experiment [4] it was 0.0561 µM; in [5] it was 0.113 µM; in experiment [6], 0.094 µM. For the same compound, the GI50 in experiment [7] was 0.107 µM; in experiment [8], 0.165 µM; in experiment [9], 0.0267 µM; in [10], 0.583 µM. For the same compound, the TGI worked out at 5.04 µM in experiment [1]; 3.58 µM in [2]; 3.05 µM in experiment [3]; 3.12 µM in experiment [4]; 4.19 µM in experiment [5]; 4.61 µM in experiment [6]. Moreover, the TGI in experiment [7] is 1.62 µM; in [8] it was 4.62 µM; in experiment [9] it was 3.27 µM; in experiment [10], 5.13 µM.

`CCOC(=O)c1ccc(N(C=O)CCC(=O)CCl)cc1`: the GI50 in [1] is 0.432 µM; in experiment [2] it was 0.0588 µM; in experiment [3], 0.0342 µM; in experiment [4], 0.0553 µM; in [5], 0.474 µM; in [6], 0.13 µM. Further, the GI50 was 0.249 µM in experiment [7], 1.74 µM in experiment [8], 0.0398 µM in experiment [9] and 1.78 µM in experiment [10]. Also, the TGI in experiment [1] was 1.81 µM; in experiment [2], 0.884 µM; in experiment [3], 1.73 µM; in experiment [4], 1.5 µM; in experiment [5], 9.23 µM; in [6] it was 2.83 µM. The TGI amounted to 0.778 µM in experiment [7], 15.2 µM in experiment [8], 1.53 µM in experiment [9] and 7.03 µM in [10].

Regarding `O=C1NC(=O)[C@@H](c2c[nH]c3ccccc23)[C@@H]1c1c[nH]c2ccccc12`, the GI50 in [1], in [2], in experiment [3], in experiment [4], in experiment [5] and in experiment [6] was greater than 25 µM throughout. Moreover, the GI50 in experiment [7], in experiment [8], in experiment [9] and in [10] was greater than 25 µM each time. Besides, the TGI in experiment [1], in [2], in experiment [3], in experiment [4], in [5] and in [6] was greater than 25 µM in each case. Moreover, the TGI in experiment [7], in [8], in experiment [9] and in [10] was greater than 25 µM throughout.

`COc1ccc2c(c1)C(=O)c1c-2c(N2CCN(C(=O)CNCCN(C)C)CC2)nc2ccccc12`: the GI50 in [1] is 4.65 µM; in experiment [2], 1.75 µM; in [3], 1.22 µM; in [4] it was 1.88 µM; in experiment [5], 2.2 µM; in experiment [6] it was 1.67 µM. In addition, the GI50 was 1.6 µM in experiment [7], 1.67 µM in experiment [8], 1.27 µM in experiment [9] and 4.15 µM in experiment [10]. The TGI in experiment [1] was found to be 17.4 µM; in experiment [2], 3.43 µM; in experiment [3], 2.7 µM; in experiment [4], 3.52 µM; in [5] it was 5.82 µM; in experiment [6], 3.84 µM. In addition, the TGI was found to be 3.03 µM in experiment [7], 3.04 µM in [8], 2.53 µM in experiment [9] and 17.8 µM in experiment [10].

In the case of `COc1cc(/C=C/C(=N\NC(=S)NN)c2sc(NNC(C)=O)nc2C)ccc1O`, the TGI in experiment [1], in [2], in experiment [3], in [4], in [5] and in experiment [6] was greater than 100 µM in each case. In addition, the TGI in experiment [7], in experiment [8], in experiment [9] and in experiment [10] was greater than 100 µM throughout.

As for `CCCCCCCCCCCC1=NC(C)(C)CN1CC(C)O` (configuration not stated), the GI50 in experiment [1] was 10 µM; in [2] it was 5.93 µM; in [3], 2.06 µM; in experiment [4] it was 1.62 µM; in experiment [5], 12.3 µM; in [6] it was 1.58 µM. Moreover, the GI50 in [7] was 1.67 µM; in experiment [8] it was 1.75 µM; in experiment [9], 1.85 µM; in [10], 10.3 µM. Also, the TGI was 21.6 µM in [1]; 22.2 µM in experiment [2]; 4.9 µM in experiment [3]; 3.1 µM in experiment [4]; 24.8 µM in experiment [5]; 4.18 µM in experiment [6]. The TGI in [7] stood at 3.14 µM; in [8] it was 3.26 µM; in [9] it was 3.91 µM; in experiment [10] it was 22.7 µM.
